Assay results from ChEMBL document CHEMBL3885881, “DrugMatrix”.

Species: Rattus norvegicus
Assay: DrugMatrix - Regimen: Daily Repeat
Assay type: toxicity, organism-based, Sprague-Dawley
Set-up: regimen Daily Repeat, gender Male, age 6-8 weeks
Settings: in vivo, po, route oral GAVAGE, vehicle .5 % CMC; for ABSOLUTE BASOPHIL / ABSOLUTE EOSINOPHIL / ABSOLUTE LYMPHOCYTE / ABSOLUTE MONOCYTE / ABSOLUTE SEGMENTED NEUTROPHIL / BASOPHIL / EOSINOPHIL / ERYTHROCYTE COUNT / HEMATOCRIT / HEMOGLOBIN / LEUKOCYTE COUNT / LYMPHOCYTE / MEAN CORPUSCULAR HEMOGLOBIN / MEAN CORPUSCULAR HEMOGLOBIN CONCENTRATION / MEAN CORPUSCULAR VOLUME / MONOCYTE / NEUTROPHIL / NUCLEATED RED BLOOD CELLS / PLATELET COUNT: tissue Blood; for ALANINE AMINOTRANSFERASE / ALBUMIN / ALKALINE PHOSPHATASE / ASPARTATE AMINOTRANSFERASE / BLOOD UREA NITROGEN / CARBON DIOXIDE / CHLORIDE / CHOLESTEROL / CREATINE PHOSPHOKINASE / CREATININE / GLUCOSE / LACTATE DEHYDROGENASE / LIPASE / PHOSPHORUS / POTASSIUM / SODIUM / TOTAL BILIRUBIN / TOTAL PROTEIN / URIC ACID: tissue Plasma
[1] = 0 mg/kg, 72 h, dose level Control, time 3 day
[2] = 0 mg/kg, 120 h, dose level Control, time 5 day
[3] = 150 mg/kg, 72 h, dose level Low, time 3 day

C[C@@H](O)[C@H]1C(=O)N2C(C(=O)O)=C(S[C@@H]3CN[C@H](C(=O)N(C)C)C3)[C@H](C)[C@H]12 [MEROPENEM]
ABSOLUTE BASOPHIL [1]: 0 CELLS/uL | ABSOLUTE EOSINOPHIL [1]: 222.83 CELLS/uL | ABSOLUTE LYMPHOCYTE [1]: 14453 CELLS/uL | ABSOLUTE MONOCYTE [1]: 0 CELLS/uL | ABSOLUTE SEGMENTED NEUTROPHIL [1]: 1490.83 CELLS/uL | BASOPHIL [1]: 0% | EOSINOPHIL [1]: 1.33% | ERYTHROCYTE COUNT [1]: 5.76 x10E6/uL | HEMATOCRIT [1]: 36.52% | HEMOGLOBIN [1]: 13.45 G/DL | LEUKOCYTE COUNT [1]: 16.17 x10E3/uL | LYMPHOCYTE [1]: 89.33% | MEAN CORPUSCULAR HEMOGLOBIN [1]: 23.37 pg | MEAN CORPUSCULAR HEMOGLOBIN CONCENTRATION [1]: 36.85 G/DL | MEAN CORPUSCULAR VOLUME [1]: 63.47 fL | MONOCYTE [1]: 0% | NEUTROPHIL [1]: 9.33% | NUCLEATED RED BLOOD CELLS [1]: 0 /100WBC | PLATELET COUNT [1]: 1239.5 x10E3/uL | ALANINE AMINOTRANSFERASE [1]: 43.83 u/L | ALBUMIN [1]: 4.27 G/DL | ALKALINE PHOSPHATASE [1]: 398.83 u/L | ASPARTATE AMINOTRANSFERASE [1]: 81.17 u/L | BLOOD UREA NITROGEN [1]: 17.67 mg/dL | CARBON DIOXIDE [1]: 27.5 mmol/L | CHLORIDE [1]: 99.17 MEQ/L | CHOLESTEROL [1]: 74 mg/dL | CREATINE PHOSPHOKINASE [1]: 331.5 u/L | CREATININE [1]: 0.2 mg/dL | GLUCOSE [1]: 171.33 mg/dL | LACTATE DEHYDROGENASE [1]: 241.67 u/L | LIPASE [1]: 9.5 u/L | PHOSPHORUS [1]: 12.25 mg/dL | POTASSIUM [1]: 6.33 MEQ/L | SODIUM [1]: 141.28 MEQ/L | TOTAL BILIRUBIN [1]: 0.15 mg/dL | TOTAL PROTEIN [1]: 5.98 G/DL | URIC ACID [1]: 1.63 mg/dL | ABSOLUTE BASOPHIL [2]: 0 CELLS/uL | ABSOLUTE EOSINOPHIL [2]: 148.67 CELLS/uL | ABSOLUTE LYMPHOCYTE [2]: 16020.5 CELLS/uL | ABSOLUTE MONOCYTE [2]: 29.17 CELLS/uL | ABSOLUTE SEGMENTED NEUTROPHIL [2]: 1468.33 CELLS/uL | BASOPHIL [2]: 0% | EOSINOPHIL [2]: 1% | ERYTHROCYTE COUNT [2]: 5.78 x10E6/uL | HEMATOCRIT [2]: 35.77% | HEMOGLOBIN [2]: 13.4 G/DL | LEUKOCYTE COUNT [2]: 17.67 x10E3/uL | LYMPHOCYTE [2]: 90.5% | MEAN CORPUSCULAR HEMOGLOBIN [2]: 23.22 pg | MEAN CORPUSCULAR HEMOGLOBIN CONCENTRATION [2]: 37.47 G/DL | MEAN CORPUSCULAR VOLUME [2]: 61.92 fL | MONOCYTE [2]: 0.17% | NEUTROPHIL [2]: 8.33% | NUCLEATED RED BLOOD CELLS [2]: 0.17 /100WBC | PLATELET COUNT [2]: 1255.5 x10E3/uL | ALANINE AMINOTRANSFERASE [2]: 46.5 u/L | ALBUMIN [2]: 4.38 G/DL | ALKALINE PHOSPHATASE [2]: 336 u/L | ASPARTATE AMINOTRANSFERASE [2]: 76.5 u/L | BLOOD UREA NITROGEN [2]: 20 mg/dL | CARBON DIOXIDE [2]: 27.5 mmol/L | CHLORIDE [2]: 101 MEQ/L | CHOLESTEROL [2]: 71.33 mg/dL | CREATINE PHOSPHOKINASE [2]: 231.83 u/L | CREATININE [2]: 0.37 mg/dL | GLUCOSE [2]: 168.83 mg/dL | LACTATE DEHYDROGENASE [2]: 174 u/L | LIPASE [2]: 8.67 u/L | PHOSPHORUS [2]: 11.48 mg/dL | POTASSIUM [2]: 6.82 MEQ/L | SODIUM [2]: 143.8 MEQ/L | TOTAL BILIRUBIN [2]: 0.2 mg/dL | TOTAL PROTEIN [2]: 5.98 G/DL | URIC ACID [2]: 1.83 mg/dL | ABSOLUTE BASOPHIL [3]: 0 CELLS/uL | ABSOLUTE EOSINOPHIL [3]: 455.67 CELLS/uL | ABSOLUTE LYMPHOCYTE [3]: 14286.67 CELLS/uL | ABSOLUTE MONOCYTE [3]: 45.33 CELLS/uL | ABSOLUTE SEGMENTED NEUTROPHIL [3]: 1912.33 CELLS/uL | BASOPHIL [3]: 0% | EOSINOPHIL [3]: 2.67% | ERYTHROCYTE COUNT [3]: 5.53 x10E6/uL | HEMATOCRIT [3]: 35.53% | HEMOGLOBIN [3]: 13.27 G/DL | LEUKOCYTE COUNT [3]: 16.7 x10E3/uL | LYMPHOCYTE [3]: 85.67% | MEAN CORPUSCULAR HEMOGLOBIN [3]: 24.03 pg | MEAN CORPUSCULAR HEMOGLOBIN CONCENTRATION [3]: 37.37 G/DL | MEAN CORPUSCULAR VOLUME [3]: 64.3 fL | MONOCYTE [3]: 0.33% | NEUTROPHIL [3]: 11.33% | NUCLEATED RED BLOOD CELLS [3]: 0 /100WBC | PLATELET COUNT [3]: 1310.33 x10E3/uL | ALANINE AMINOTRANSFERASE [3]: 52.67 u/L | ALBUMIN [3]: 4.33 G/DL | ALKALINE PHOSPHATASE [3]: 370.33 u/L | ASPARTATE AMINOTRANSFERASE [3]: 85.67 u/L | BLOOD UREA NITROGEN [3]: 16.33 mg/dL | CARBON DIOXIDE [3]: 27 mmol/L | CHLORIDE [3]: 101.33 MEQ/L | CHOLESTEROL [3]: 78.33 mg/dL | CREATINE PHOSPHOKINASE [3]: 300.67 u/L | CREATININE [3]: 0.22 mg/dL | GLUCOSE [3]: 154.33 mg/dL | LACTATE DEHYDROGENASE [3]: 406.33 u/L | LIPASE [3]: 9 u/L | PHOSPHORUS [3]: 11.9 mg/dL | POTASSIUM [3]: 6.59 MEQ/L | SODIUM [3]: 143 MEQ/L | TOTAL BILIRUBIN [3]: 0.2 mg/dL | TOTAL PROTEIN [3]: 6.03 G/DL | URIC ACID [3]: 2 mg/dL
